Results: a melting point compilation (Tetko et al.; mined from patent text by program, amines drawn as free bases though some values may be those of a salt)

melting point [°C]	SMILES
72 to 74	COC(=O)C1CCCCN1S(N)(=O)=O (stereo not given)
54 to 56	CCc1nc2c(s1)CC(COS(=O)(=O)c1ccc(C)cc1)CC2 (stereo not given)
66 to 67.5	COC(=O)C(Sc1ccc(Cl)cc1)c1ccc(Oc2ccccc2)cc1 (stereo not given)
48 to 53	COC(=O)C1OC(c2cc(-c3ncc(C(F)(F)F)cc3Cl)ccc2Cl)OC1C(=O)OC (stereo not given)
127	CC(C)(C)OC(=O)N1CCN(c2ccc(NC(=O)Nc3cc(Cl)ccc3NS(C)(=O)=O)cc2)CC1
85 to 86	C=Cc1c(NCc2ccco2)nc(C2CC2)nc1C(=O)OC
150 to 151	COc1ccc(N2CCN(c3c(C)c(C)c4c(c3C)C(O)C(C)(C)O4)CC2)cc1OC (stereo not given)
127	COc1ccc(C2c3[nH]c4ccccc4c3CCN2C(=O)C=Cc2ccccc2)cc1 (stereo not given)
274 to 275	CC(C)(C)c1ccc(C(=O)Nc2cn3cc(-n4cccc4)ccc3n2)cc1
138 to 140	COc1cc([N+](=O)[O-])c2nc(C(F)(F)F)cc(O)c2c1
137 to 139	CC(=O)Nc1ccc(S(=O)(=O)N2CCCCC2)cc1
102	CCCCCOc1ccc(CCOc2ccc(/C=C(\OCC)C(=O)O)cc2OCCCC)cc1F
128 to 129	O=[N+]([O-])c1ccc(CN2CCNCCNCCNCC2)cc1
131 to 133	NC(=O)c1ccc(F)c(Br)c1
155 to 165	O=C(Oc1ccccc1)N1Cc2ccccc2C(c2ccccc2)c2ccccc21 (stereo not given)
174 to 178	Nc1cc(Cl)cc(Cl)c1C(=O)NCc1ccc(Cl)cc1
112 to 114	COC(=O)c1cc(C(=O)CBr)cs1
247 to 248	CC(CS)C(=O)Nc1cc(C(=O)O)ccn1 (stereo not given)
143 to 144	CCC(=NO)C(C)(C)NCC(Cn1ccnc1[N+](=O)[O-])ONC(C)(C)C(CC)=NO (stereo not given)
190	COC(=O)c1ccc(F)cc1SC(=O)N(C)C
> 300	NC(N)=Nc1nc(-c2cccc(-c3n[nH]c(N)n3)n2)cs1
225 to 227	COc1ccc(Nc2cccc3c2C(=O)N(C2CCC(=O)NC2=O)C3=O)cc1O (stereo not given)
37 to 39	CCCCCCCCCCSc1ccc(Br)cc1
178 to 179	COC(=O)C1=NC2=COc3ccc(C)cc3N2C1C(=O)O (stereo not given)

melting point [°C]	SMILES
158 to 159	CN=C(NS(=O)(=O)c1ccc(Cl)c(Cl)c1)SC
136 to 139	CC[C@@H](c1ccccc1)N(Cc1ccc(C(=O)NCC(=O)O)cc1)S(=O)(=O)c1ccc(Cl)cc1
223 to 225	CC(C)(C)OC(=O)N1CCC(CCc2c3c(nn2C(C)(C)C)c(=O)[nH]c2ccccc23)CC1
86	Cc1cccc(-c2n[nH]cc2-c2ccc(F)c(-c3ccc(N4CCN(C)CC4)nc3)c2)n1
184	CC(C)c1ncc(O)cn1
61 to 63	CCN(C)c1ccc(Cl)nn1
258 to 260	Cc1nn(C)c(-c2ccccc2)c1NC(N)=S
163 to 164	O=C1[C@H]2CCC[C@H]2N(C(=O)CBr)c2ccc(Cl)cc2N1Cc1ccccc1 (relative stereo)
55 to 57	CCCCCCCCCCOc1cc(OCCCCCCCCCC)cc(N(CC(=O)OCc2ccccc2)CC(=O)OCc2ccccc2)c1
136 to 138	CC(C)NC(=O)Nc1ccnc(Br)c1
283 to 291	CCCn1cc2c(C3C(=O)Nc4ccc(Br)cc43)nc(NCCc3ccccn3)nc2n1 (stereo not given)
130 to 131	Cc1oc(-c2ccccc2)nc1CCc1ccc(COc2ccccc2CC(=O)O)cc1
90	CN1CCC(ON2C(=O)c3ccccc3C2=O)CC1
238 to 242	Nc1nc2ccc3cc(S(=O)(=O)Nc4ccc(C(=O)N[C@@H](CCC(=O)O)C(=O)O)cc4)c(Br)cc3c2c(=O)[nH]1
74 to 75	CCOCn1c(-c2cc(F)cc(F)c2)c(C#N)c(Br)c1C(F)(F)F
116	CCCCCCCCCCCCCCN(C(=O)CCCCCCCCCCC)C1(N)OC(CO)C(O)C(O)C1C(=O)C(N)C(=O)CNC (stereo not given)
76	CC(=O)OC1COC(N=[N+]=[N-])C(OC(C)=O)C1OC(C)=O (stereo not given)
213 to 216	COc1cc(C(=O)C=Cc2cc(O)c(O)c([N+](=O)[O-])c2)cc(OC)c1OC
231 to 232	Cc1ccc(-c2c(C(=O)Nc3nccs3)nc(-c3cccc4ccccc34)n2Cc2ccccc2)cc1
98 to 99	COc1ccc(CNC(=O)c2ccccc2)cc1
165 to 166	COc1cc2c(cc1O)CCN(Cc1cccnc1)C2
143 to 145	CCC(C)n1cc(Cl)nc(N2CCc3cc(OC)cc(Cl)c32)c1=O (stereo not given)
164 to 166	CC(C)c1cccc(C(C)C)c1NC(=O)CO
132 to 133	CN(c1cccc2cc(C(=O)NCC(C)(CCO)SCc3ccccc3)[nH]c12)S(=O)(=O)c1cccs1 (stereo not given)

melting point [°C]	SMILES
249 to 252	Cc1c(C)c2c(c(C)c1O)C(=O)CC(COc1ccc(CC3SC(=O)NC3=O)cc1)O2 (stereo not given)
159 to 162	COc1cc(C(C)=O)cc(Br)c1Oc1nc(C)nc(N2CCOCC2)n1
204 to 206	Cn1c(-c2ccc3ccccc3c2)nnc1S(C)(=O)=O
85	C#CCOc1ccc(CCNC(=O)C(O)Cc2ccc(C)cc2)cc1OC (stereo not given)
210 to 211	CC1(C)CCc2c(N3CCCC3)nc3sc4c(NCC(=O)NCC5CCCO5)ncnc4c3c2C1 (stereo not given)
170 to 173	CN1C(=O)N(c2cccc(Cl)c2)C(=O)C1S(=O)(=O)c1ccc(F)cc1 (stereo not given)
111 to 112	CC(C)CC[C@@H]1[C@H](c2ccccc2)OC(=O)N1CCCN1CCCCC1 (racemic)
231 to 233	CC(C)c1[nH]nc2c1C(=O)c1c(NC(=O)NN3CCN(C)CC3)cccc1-2
164 to 165	Nc1ccccc1CS(=O)c1nc2ccccc2[nH]1 (stereo not given)
51 to 54	Cc1ccc(S(=O)(=O)OCCC2Cc3ccccc3O2)cc1 (stereo not given)
189 to 191	O=C(NCC(=O)N1c2ccccc2N(Cc2ccccc2)C(=O)[C@H]2CCC[C@H]21)c1cccnc1 (relative stereo)
105 to 106	COC(=O)CN(C)c1nc(-c2ccc(Br)cc2)c(C=O)s1
126	CCC1=C(C(=O)OC)C(c2ccc(C)cc2)C(C#N)=C(CC(C)(C)C)N1 (stereo not given)
198 to 199	CCc1ccc2c(c1)c(-c1ccccc1Cl)c(NC(=O)Nc1c(C)cccc1C(C)C)c(=O)n2C
44.5 to 46.5	CCCC1=Nc2ccccc2CC(c2ccsc2)N1C (stereo not given)
278 to 280	COc1ccccc1-n1cnc2c(C(N)=O)nc(-c3ccccc3O)nc21
75 to 81	COc1ccc(CN(CCN(C)C)c2cccc(/C=C/C(=O)O)n2)cc1
85	CC(=O)CC(C)c1ccc(-c2ccccc2)c(F)c1 (stereo not given)
78 to 86	CC(C)NCCCCCCOc1ccc(O)cc1
88 to 90	COc1ccc(CC2=NC(C)(C)CO2)cc1[N+](=O)[O-]
109 to 111	C=CCc1c(OC)cc(OC)cc1C(=O)O
49.6	CCCCN=C(c1cc(Cl)ccc1O)c1ccccc1Cl
142 to 144	O=C(CN1C(=O)CNC1=O)OCc1ccccc1
208 to 210	Cc1ccc2c(c1)C=Cc1cc(C)ccc1C2c1cn(-c2ccnc(N3C[C@H](O)C[C@H]3C(=O)O)n2)c(=O)[nH]c1=O

melting point [°C]	SMILES
160 to 165	CCN(CC)C(=O)/C=C/c1ccc(Cn2c(-c3ccc(O)cc3)c(C)c3cc(O)ccc32)cc1
215 to 217	COC(=O)c1cc(-c2ccc(OC)cc2)nn(Cc2ccc([N+](=O)[O-])cc2)c1=O
153 to 154	OCC1OC(n2cnc3c(NCCc4cccs4)ncnc32)C(O)C1O (stereo not given)
103 to 105	CC(C)(C)NS(=O)(=O)c1cccc2c1SC(C)(C)C2
> 300	O=C(O)c1ccc(-c2ccnc(-c3cc(-c4ccc(C(=O)O)s4)ccn3)c2)s1
231	COc1cc([N+](=O)[O-])c(CC(=O)O)c(Cl)c1O
124 to 126	CCOC(=O)c1cc(C(=O)C(C)(C)Br)c(=O)[nH]c1C(=O)OCC
207 to 209	CC(C)n1nc(-c2c(OC3CCOCC3)nc(N)nc2-c2ccccc2)ccc1=O
191 to 195	CCCCc1oc2ccccc2c1C(=O)Nc1ccc2c(Br)c(OC(Cc3ccccc3)C(=O)O)ccc2c1 (stereo not given)
108 to 109	COc1ccc(-c2cc(CCCN3CCN(C)CC3)c(=O)n(Cc3ccc(F)cc3)n2)cc1F
135 to 136	CCOC(=O)Oc1ccc(/C(=C(/CC)c2ccccc2)c2ccc(/C=C/C(=O)O)cc2)cc1
120 to 122	CCCCCCCCNC(=O)c1cscc1C(=O)O
174 to 176	CC(C)=CCNC(=O)Cn1ccnc1[N+](=O)[O-]
198 to 201	O=C1NN=C(c2ccc3c(c2)CCN(C2CCC2)CC3)C2CCCC12 (stereo not given)
245 to 249	O=C(Nc1ccccc1)Nc1nc2ccc(OC(=O)c3ccccc3)cc2s1
192 to 194	CCCCCCS(=O)(=O)c1c(Br)cc(N)cc1Br
281 to 283	CC(=O)NN1C(=O)c2cc3ccc4c(c3c(-c3ccc5c(c3)OCO5)c2C1=O)OCO4
149 to 152	Cc1cccc(C)c1N1CCc2c(C)nc3ccccc3c21
166 to 168	O=c1[nH]c2ccc(S(=O)CCN3CCC(Cc4ccc(F)cc4F)CC3)cc2o1 (stereo not given)
125 to 126	O=C(CN1C(=O)c2ccccc2S1(=O)=O)OCCO
125 to 126	CCOC(=O)c1c(CCl)nc2ccc(C)cc2c1-c1ccc(OC)c(OC)c1
254 to 256	N#Cc1cccc(NCC(=O)Nc2c(Cl)ccc3nc(N4CC[C@@H](O)C4)ccc23)c1

SMILES	melting point [°C]
CC(CBr)N1CCN(c2ccccn2)CC1 (stereo not given)	50 to 51
O=c1[nH]c2cc(Cl)ccc2n1C1CCN(Cc2cncc(-c3ccccc3)c2)CC1	229 to 231
CN1CCC23CC(=O)CCC2C1Cc1ccccc13 (stereo not given)	164 to 166
S=P1(c2ccccc2)CCCC1	74
O=[N+]([O-])c1ccc(C2CCNCC2)cc1	90 to 92
Cc1c2c(c(Cl)n1C)NC(=O)CN=C2c1ccccc1	195
